Reference: patent publication US20120220548A1, “Compositions and methods for treatment of virus-associated cancer cells” (priority 2011, published 2012)

How the values were obtained:
BCBL-1 cells = settings: 3 weeks
Method: Mice were injected with 2×10^7 BCBL-1 cells and were weighed as a function of time every week for 3 weeks, to assess tumor growth. […] The weight is shown on the ordinate and time in days on the abscissa.
Mice were injected with 2×10^7 BCBL-1 cells (a strain of PEL cells) and were weighed as a function of time every week for three weeks, to assess tumor growth. Weight was compared to control mice not receiving BCBL-1 cells.

[1] = test system: BCBL-1 primary effusion lymphoma (PEL) cells; assay: rapamycin cell killing of BCBL-1 PEL cells in culture with or without oHA (relative cell viability); assay type: cell-based, human
Method: The cells used are the PEL strain known as body cavity-based lymphoma-1 (BCBL-l; diamonds and squares). The squares indicate data from cells to which oHA was added along with rapamycin.
Cell viability was assessed using both MTT and Trypan blue exclusion assays as described in Qin Z, et al. PLoS Pathog 2010; 6(1): e1000742. For MTT assays, a total of 5×10^3 PEL cells were incubated individual wells of a 96-well plate for 24 hours. Serial dilutions of paclitaxel, doxorubicin or oHAs were added and subsequently incubated in 1 mg/ml MTT solution (Sigma-Aldrich) at 37° C. for 3 hours. Thereafter, cells were incubated in 50% dimethylsulfoxide overnight and optical densities determined at 570 nm using a spectrophotometer (Thermo Labsystems, West Palm Beach, Fla., USA). For Trypan blue exclusion assays, cells were incubated with 0.4% Trypan blue (MP Biomedicals, Northbrook, Ill., USA) and observed under light microscopy. Relative cell viability was determined after assessment of at least 1000 cells per condition for each experiment using the following formula: (no. of live cells/no. of total cells for experimental conditions)/ (no. of live cells/no. of total cells for vehicle-treated control cells). […]

[2] = doxorubicin 0.2 mg/kg intraperitoneally

COc1cccc2c1C(=O)c1c(O)c3c(c(O)c1C2=O)C[C@@](O)(C(=O)CO)C[C@@H]3O[C@H]1C[C@H](N)[C@H](O)[C@H](C)O1 [doxorubicin]
effect on progress of lymphoma (weight gain) (BCBL-1 cells; doxorubicin 0.2 mg/kg i.p., oHA 0.5 mg/kg i.p.): only slightly reduced the increase in weight
tumor-associated weight gain (BCBL-1 cells; [2]): 4 to 7 g
tumor-associated weight gain from baseline weight of 25-28g (BCBL-1 cells; [2]): approximately 35%

CO[C@H]1C[C@@H]2CC[C@@H](C)[C@@](O)(O2)C(=O)C(=O)N2CCCC[C@H]2C(=O)O[C@H]([C@H](C)C[C@@H]2CC[C@@H](O)[C@H](OC)C2)CC(=O)[C@H](C)/C=C(\C)[C@@H](O)[C@@H](OC)C(=O)[C@H](C)C[C@H](C)/C=C/C=C/C=C/1C [rapamycin]
survival (relative cell viability) ([1]; 1 nM rapamycin, this agent alone): greater than 0.95
IC50 ([1]; Homo sapiens, BCBL1, read-out: concentration of rapamycin giving cell death of about half the cells, rapamycin alone): 10 to 20 nM
